The target in the assay is ROCK2 (Homo sapiens, UniProt O75116). Briefly: ROCK assay: phosphorylation of FITC peptide substrate, LABCHIP 3000 mobility shift. As to conditions: 5 μM ATP, 1.5 μM peptide substrate; read-out: ROCK2 Activity (ROCK IC50 range). It is filed as biochemical. The procedure, abridged:
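IC50 values come from curve-fitting percent kinase inhibition across a compound dilution series. The reaction is started with Rho kinase variant in HEPES pH 7.5 buffer with MgCl2, Brij-35 and DTT, with 5 μM ATP, 1.5 μM FITC-labelled peptide and under 2% DMSO. After EDTA quench, product and substrate are separated by microfluidic mobility shift.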

Each structure is given as a SMILES string.

ROCK2, sequence (O75116 whole entry, species assumed): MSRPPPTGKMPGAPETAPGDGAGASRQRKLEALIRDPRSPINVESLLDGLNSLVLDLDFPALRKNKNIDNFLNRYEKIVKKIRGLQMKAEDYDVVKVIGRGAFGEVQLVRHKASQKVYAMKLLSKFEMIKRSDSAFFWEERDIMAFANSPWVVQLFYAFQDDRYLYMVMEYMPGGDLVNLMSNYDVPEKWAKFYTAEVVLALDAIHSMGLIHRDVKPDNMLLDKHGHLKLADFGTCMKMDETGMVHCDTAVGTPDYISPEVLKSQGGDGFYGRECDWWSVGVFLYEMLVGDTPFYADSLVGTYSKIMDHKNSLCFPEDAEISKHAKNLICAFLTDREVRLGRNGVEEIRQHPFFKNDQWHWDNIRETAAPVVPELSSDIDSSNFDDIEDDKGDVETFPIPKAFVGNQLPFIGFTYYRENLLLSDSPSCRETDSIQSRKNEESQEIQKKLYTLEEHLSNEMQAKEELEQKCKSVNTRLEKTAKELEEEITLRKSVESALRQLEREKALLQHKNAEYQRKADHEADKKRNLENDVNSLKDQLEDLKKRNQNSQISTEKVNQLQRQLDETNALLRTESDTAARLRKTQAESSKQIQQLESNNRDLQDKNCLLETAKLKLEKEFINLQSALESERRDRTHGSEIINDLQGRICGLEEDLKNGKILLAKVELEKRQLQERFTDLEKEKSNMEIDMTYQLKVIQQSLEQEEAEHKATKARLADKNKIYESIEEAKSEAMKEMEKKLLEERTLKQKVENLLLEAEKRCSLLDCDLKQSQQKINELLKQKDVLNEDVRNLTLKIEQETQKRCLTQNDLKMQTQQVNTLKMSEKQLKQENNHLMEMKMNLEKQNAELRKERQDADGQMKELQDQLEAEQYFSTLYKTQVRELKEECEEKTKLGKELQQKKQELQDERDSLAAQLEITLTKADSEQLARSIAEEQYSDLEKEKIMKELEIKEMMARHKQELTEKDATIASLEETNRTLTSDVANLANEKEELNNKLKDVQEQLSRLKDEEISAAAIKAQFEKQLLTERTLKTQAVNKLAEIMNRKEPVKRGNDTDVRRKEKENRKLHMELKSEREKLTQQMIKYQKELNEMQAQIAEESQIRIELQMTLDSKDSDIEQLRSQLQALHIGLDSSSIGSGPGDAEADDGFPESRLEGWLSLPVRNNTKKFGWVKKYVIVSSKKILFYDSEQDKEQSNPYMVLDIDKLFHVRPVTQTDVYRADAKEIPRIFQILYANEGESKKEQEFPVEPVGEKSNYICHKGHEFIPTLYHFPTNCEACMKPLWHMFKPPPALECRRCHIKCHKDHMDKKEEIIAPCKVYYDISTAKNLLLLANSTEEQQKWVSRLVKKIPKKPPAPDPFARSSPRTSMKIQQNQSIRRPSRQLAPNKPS

What is called IC50 is the concentration at which inhibition is half-maximal. On to `[H][C@]1(c2n[nH]c(=O)c3ccccc32)C[C@]2(C[C@@H](NC(=O)c3cnc4cc(-c5cnn(C)c5)ccn34)C2)C1` (stereo partly drawn) [Example 440, 7-(1-methyl-1H-pyrazol-4-yl)-N-((aR)-6-(4-oxo-3,4-dihydrophthalazin-1-yl)spiro[3.3]heptan-2-yl)imidazo[1,2-a]pyridine-3-carboxamide], for which the concentration for half-maximal inhibition (IC50) was 0.2 to 2 nM.
The result for `[H][C@]1(c2n[nH]c(=O)c3ccccc32)C[C@]2(C[C@@H](NC(=O)c3cnc4cc(-c5cnn(C(C)C)c5)ccn34)C2)C1` (stereo partly drawn) [Example 441, 7-(1-isopropyl-1H-pyrazol-4-yl)-N-((aR)-6-(4-oxo-3,4-dihydrophthalazin-1-yl)spiro[3.3]heptan-2-yl)imidazo[1,2-a]pyridine-3-carboxamide] reads 0.2 to 2 nM; that for `[2H]C([2H])([2H])n1cc(-c2ccn3c(C(=O)N[C@H]4CC5(C4)C[C@H](c4n[nH]c(=O)c6ccccc64)C5)cnc3c2)cn1` (stereo partly drawn) [Example 442, 7-(1-(methyl-d3)-1H-pyrazol-4-yl)-N-((aR)-6-(4-oxo-3,4-dihydrophthalazin-1-yl)spiro[3.3]heptan-2-yl)imidazo[1,2-a]pyridine-3-carboxamide], 0.2 to 2 nM.
Take `[H][C@]1(c2n[nH]c(=O)c3ccccc32)C[C@]2(C[C@@H](NC(=O)c3cnc4cc(-c5cnn(C6CCOCC6)c5)ccn34)C2)C1` (some centres unmarked) [Example 443]: the IC50 was in the range of 0.2 to 2 nM.
The result for `[H][C@]1(c2n[nH]c(=O)c3ccccc32)C[C@]2(C[C@@H](NC(=O)c3cnc4cc(-c5cn(C(C)C)nc5C(F)(F)F)ccn34)C2)C1` (stereo partly drawn) [Example 444, 7-(1-isopropyl-3-(trifluoromethyl)-1H-pyrazol-4-yl)-N-((aR)-6-(4-oxo-3,4-dihydrophthalazin-1-yl)spiro[3.3]heptan-2-yl)imidazo[1,2-a]pyridine-3-carboxamide] reads 2.01 to 5 nM; that for `[H][C@]1(c2n[nH]c(=O)c3ccccc32)C[C@]2(C[C@@H](NC(=O)c3ccc(-c4cnn(CC)c4)c(F)c3)C2)C1` (stereo partly drawn) [Example 445, 4-(1-ethyl-1H-pyrazol-4-yl)-3-fluoro-N-((aR)-6-(4-oxo-3,4-dihydrophthalazin-1-yl)spiro[3.3]heptan-2-yl)benzamide], 15.1 to 100 nM; that for `[H][C@]1(c2n[nH]c(=O)c3ccccc32)C[C@]2(C[C@@H](NC(=O)c3ccc(-c4cnn(C(C)C)c4)c(F)c3)C2)C1` (stereo partly drawn) [Example 446, 3-fluoro-4-(1-isopropyl-1H-pyrazol-4-yl)-N-((aR)-6-(4-oxo-3,4-dihydrophthalazin-1-yl)spiro[3.3]heptan-2-yl)benzamide], 2.01 to 5 nM.
The result for `[H][C@]1(c2n[nH]c(=O)c3ccccc32)C[C@]2(C[C@@H](NC(=O)c3ccc(-c4cnn(C)c4C(F)(F)F)c(F)c3)C2)C1` (stereo partly drawn) [Example 447, 3-fluoro-4-(1-methyl-5-(trifluoromethyl)-1H-pyrazol-4-yl)-N-((aR)-6-(4-oxo-3,4-dihydrophthalazin-1-yl)spiro[3.3]heptan-2-yl)benzamide] reads 2.01 to 5 nM.
As for `[H][C@]1(c2n[nH]c(=O)c3ccccc32)C[C@]2(C[C@@H](NC(=O)c3ccc(-c4cnn(C5CC5)c4)c(F)c3)C2)C1` (stereo partly drawn) [Example 448, 4-(1-cyclopropyl-1H-pyrazol-4-yl)-3-fluoro-N-((aR)-6-(4-oxo-3,4-dihydrophthalazin-1-yl)spiro[3.3]heptan-2-yl)benzamide], the IC50 was 2.01 to 5 nM.
With `[H][C@]1(c2n[nH]c(=O)c3ccccc32)C[C@]2(C[C@@H](NC(=O)c3ccc(-c4cnn(C5CCOCC5)c4)c(F)c3)C2)C1` (stereo partly drawn) [Example 449, 3-fluoro-N-((aR)-6-(4-oxo-3,4-dihydrophthalazin-1-yl)spiro[3.3]heptan-2-yl)-4-(1-(tetrahydro-2H-pyran-4-yl)-1H-pyrazol-4-yl)benzamide], the IC50 is 5.1 to 15 nM.
`[H][C@]1(c2n[nH]c(=O)c3ccccc32)C[C@]2(C[C@@H](NC(=O)c3ccc(-c4cnn(C)c4)cn3)C2)C1` (stereo partly drawn) [Example 450, 5-(1-methyl-1H-pyrazol-4-yl)-N-((aR)-6-(4-oxo-3,4-dihydrophthalazin-1-yl)spiro[3.3]heptan-2-yl)picolinamide]: the IC50 was 15.1 to 100 nM.

For the origin of these results see US9902702B2, “Spirocycloheptanes as inhibitors of rock” (BRISTOL-MYERS SQUIBB COMPANY, priority 2014, dated 2018).
